Test results published in patent US12552757B2, “NRF2-activating compound” (SENJU PHARMACEUTICAL CO., LTD., priority 2019, dated 2026).

Columns and labels:
NRF2 = assay: Measurement 2 of Nrf2 activating action (reporter assay) in HCE-T/ARE-Luc cells; format: cell-based; details: 50% activation concentration, culture for 24 hours
Experimental: The NRF2 activating action of the compounds on cells was measured by a reporter gene assay. pGL4.37[luc2P/ARE/Hygro](Promega) was introduced into HCE-T cells using FuGENE HD. Cells that acquired drug resistance as a result of transduction were screened by culture in the presence of 50 μg/mL hygromycin, and a clone strain, HCE-T/ARE-Luc, was established.
HCE-T/ARE-Luc was cultured using DMEM/F12, 10 ng/mL hEGF, 5 μg/mL insulin, and 5% FBS. Phenol red-free DMEM/F12 was used as the assay medium.
HCE-T/ARE-Luc was seeded in a 96-well polystyrene microplate (FALCON) with 10000 cells per well. The cells were incubated in a CO: incubator at 37° C. for 16 hours to allow for cell adhesion. The test substance was dissolved in dimethylsulfoxide to prepare a solution at a concentration 1000 times higher than the test concentration. The test substance diluted 1000-fold in the assay medium was added, followed by culture for 24 hours. When measuring the activity of the reporter, the medium containing the test substance was removed, and then a new medium and a substrate of ONE-GloEX Luciferase Assay System (Promega) were added. The plate was shaken for 1 minute and then allowed to stand at ordinary temperature for 10 minutes, and luminescence was detected using the GloMax Discover System.
The 50% activation concentration of each test substance was calculated by creating a calibration curve between two concentrations across the luminescence intensity of 50%.

[1] = Measurement of metabolic stability in human liver microsomes; format: in vitro ADME; details: residual ratio of test compound after 30 minutes at 37° C. with human liver microsome, LC/MS/MS
How it was run: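 Compound was diluted to 200 nmol/L in 6.5 mmol/L NADPH solution (pre-mix levels) and incubated with an equal volume of 0.2 mg protein/mL pooled mixed-gender human liver microsomes for 30 min at 37° C, then quenched with methanol. LC/MS/MS peak areas gave % remaining versus a sample quenched before microsome addition.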

Row | EC50 (NRF2) [nM] | Metabolic stability* [1] [%] | SMILES
1 | 2.98 | 48 | CC[C@@H]1CN(Cc2cc(C(c3cc(OC)c(C(C)=O)s3)C(C)(C)C(=O)O)ccc2C)S(=O)(=O)c2cnccc2O1 (stereo partly drawn) [Compound 50, 3-(5-acetyl-4-methoxythiophen-2-yl)-3-(3-{[(R)-4-ethyl-1,1-dioxide-3,4-dihydro-2H-pyrido[4,3-b][1,4,5]oxathiazepin-2-yl]methyl}-4-methylphenyl)-2,2-dimethylpropanoic acid]
2 | 7.47 | 50 | CC[C@@H]1CN(Cc2cc(C(c3cc(OC)c(C(C)=O)s3)C(C)C(=O)O)ccc2C)S(=O)(=O)c2cnccc2O1 (stereo partly drawn) [Compound 51, 3-(5-acetyl-4-methoxythiophen-2-yl)-3-(3-{[(R)-4-ethyl-1,1-dioxide-3,4-dihydro-2H-pyrido[4,3-b][1,4,5]oxathiazepin-2-yl]methyl}-4-methylphenyl)-2-methylpropanoic acid]
